Data on 3 molecules can be found in patent US20250339421A1, “METHODS FOR TREATING BILE DUCT CANCERS WITH TIVOZANIB” (The U.S.A., as represented by the Secretary, Department of …, priority 2021, published 2025).

The test system of data set [1] is AKT S473 phosphorylation. The data set is described as follows: AKT S473 phosphorylation in SNU-1079 cholangiocarcinoma cells. The format is cell-based. Conditions: SNU-1079 cell line, compared to control levels.
Data set [2] concerns EGI-1. The data set is described as follows: proliferation of EGI-1 cholangiocarcinoma cells. Format: cell-based. Conditions: EGI-1 cell line; IC50 only in FIG. 3C-3E.
Data set [3] concerns WITT. The data set is described as follows: tumor organoid assay, WITT. Conditions: tivozanib at 200 nM vs control. The format is cell-based. As for the experimental part: (§1) Images of control are on the top row, whereas the effects of tivozanib at 200 nM are shown in the bottom row where the tumor organoids are smaller and fewer than in the control.
For data set [4] the following is noted: patients on Tivozanib; cited from earlier work.
For the next data set, the target named is c-kit (Homo sapiens, UniProt P10721). Conditions: at clinically relevant concentrations; cited from earlier work.
The subject of data set [5] is AKT S473 phosphorylation. The data set is described as follows: AKT S473 phosphorylation in EGI-1 cholangiocarcinoma cells. Format: cell-based. The settings on record: EGI-1 cell line, compared to control levels.
The next data set has as its system SNU-1070. The data set is described as follows: tumor organoid assay, SNU-1070 (SNU-1079). Conditions: SNU-1070 as printed; tivozanib at 200 nM vs control. The format is cell-based. The protocol: as §1
In data set [6] the test system is liver metastasis from a patient with XPO7-expressing cholangiocarcinoma. As to the kind of experiment: ex vivo tumor SMART platform, H&E and Ki67 staining. The format is cell-based, human. The protocol:
Finally, tivozanib was evaluated in the ex vivo tumor SMART platform described in International Patent Application No. WO2021/183527 which is incorporated by reference herein for all purposes. A liver metastasis from a patient with XPO7-expressing cholangiocarcinoma was evaluated using H&E staining and Ki67 staining to contrast treatment with control versus tivozanib.

The next data set concerns SNU-1079. As to the kind of experiment: proliferation of SNU-1079 cholangiocarcinoma cells. The format is cell-based. Conditions: SNU-1079 cell line; IC50 only in FIG. 3C-3E.
The subject of data set [7] is various tumor cell types including human renal cell carcinoma. Conditions: tumor xenograft models in mice and rats; cited from earlier work.
A further data set deals with VEGFR-3 (Homo sapiens, UniProt P35916). The settings on record: at clinically relevant concentrations; cited from earlier work.
The target in the next data set is PDGFR β (Homo sapiens, UniProt P09619). Conditions: at clinically relevant concentrations; cited from earlier work.
Data set [8] concerns EGI-1. The data set is described as follows: tumor organoid assay, EGI-1. Format: cell-based. Conditions: tivozanib at 200 nM vs control. As for the experimental part:
as §1

A further data set deals with EGI-1 cell line. As to the kind of experiment: subcutaneous xenograft model (EGI-1 cell line). Format: in vivo, athymic nude mice. As for the experimental part: FIG. 3G is a photograph of tumors obtained in a subcutaneous xenograft model using athymic nude mice (top row=vehicle treated; bottom row=20 mg/kg/day Tivozanib treatment for 28 days).
FIG. 3L provides a photograph of tumors obtained in an EGI-1 CCA cell line subcutaneous xenograft model following 28 days of treatment with vehicle or bevacizumab (top row=vehicle treated; bottom row=bevacizumab). Bevacizumab was provided at the standard murine dose. […] However, the reduction was not as dramatic as that seen with tivozanib alone (see FIG. 3H). As bevacizumab is an anti-VEGF antibody, the reduction seen in tumor volume provided by tivozanib cannot be attributed to its VEGF inhibitory properties alone; otherwise, a similar reduction would have been expected with bevacizumab.
To confirm that the tumoricidal effects of tivozanib were not due to its activity as a VEGF inhibitor, but could be attributed to action on SLK, the antitumor effects of bevacizumab, an anti-VEGF antibody, on EGI-1 cholangiocarcinoma xenografts were evaluated. […] If the decrease in tumor size with tivozanib was due solely to its activity as a VEGF inhibitor, bevacizumab should have produced similar results.

Data set [9] relates to WITT. As to the kind of experiment: proliferation of WITT cholangiocarcinoma cells. Format: cell-based. Conditions: WITT cell line; IC50 only in FIG. 3C-3E.
A further data set deals with SLK (Homo sapiens, UniProt Q9H2G2). As to the kind of experiment: kinome inhibition screen. Conditions: FIG. 3A.
The test system of data set [10] is AKT S473 phosphorylation. As to the kind of experiment: AKT S473 phosphorylation in WITT cholangiocarcinoma cells. The format is cell-based. Conditions: WITT cell line, compared to control levels.
For data set [11] the following is noted: cited from earlier work.

Counter-ions that a name gives are not always drawn.

Sequence of PDGFR β (P09619 33-1106): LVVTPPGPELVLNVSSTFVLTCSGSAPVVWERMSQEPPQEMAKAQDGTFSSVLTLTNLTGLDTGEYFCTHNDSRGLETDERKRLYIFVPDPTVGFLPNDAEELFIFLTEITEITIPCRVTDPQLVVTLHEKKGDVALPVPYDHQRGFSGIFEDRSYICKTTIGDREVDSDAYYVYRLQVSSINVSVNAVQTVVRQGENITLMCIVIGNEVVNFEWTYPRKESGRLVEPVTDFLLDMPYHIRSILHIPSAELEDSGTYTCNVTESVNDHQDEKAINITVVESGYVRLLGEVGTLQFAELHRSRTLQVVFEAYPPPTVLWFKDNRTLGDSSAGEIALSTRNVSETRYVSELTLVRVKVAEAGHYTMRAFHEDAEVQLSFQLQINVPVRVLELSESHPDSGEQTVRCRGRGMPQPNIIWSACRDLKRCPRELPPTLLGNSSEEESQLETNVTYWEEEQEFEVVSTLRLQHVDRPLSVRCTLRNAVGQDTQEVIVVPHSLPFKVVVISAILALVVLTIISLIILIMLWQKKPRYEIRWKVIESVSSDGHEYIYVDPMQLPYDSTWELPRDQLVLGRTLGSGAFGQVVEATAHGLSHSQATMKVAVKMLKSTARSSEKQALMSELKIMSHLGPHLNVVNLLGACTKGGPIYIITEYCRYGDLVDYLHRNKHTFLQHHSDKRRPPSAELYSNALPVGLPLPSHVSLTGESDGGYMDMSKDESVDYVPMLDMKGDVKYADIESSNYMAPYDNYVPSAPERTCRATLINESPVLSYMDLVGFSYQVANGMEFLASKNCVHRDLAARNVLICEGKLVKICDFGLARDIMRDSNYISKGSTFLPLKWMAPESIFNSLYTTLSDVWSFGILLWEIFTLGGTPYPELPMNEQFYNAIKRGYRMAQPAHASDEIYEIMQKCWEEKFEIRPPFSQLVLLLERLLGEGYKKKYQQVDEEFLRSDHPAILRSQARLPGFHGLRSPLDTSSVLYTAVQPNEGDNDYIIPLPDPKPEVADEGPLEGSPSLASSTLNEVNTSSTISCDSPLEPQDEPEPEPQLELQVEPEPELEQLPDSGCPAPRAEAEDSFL
Sequence of SLK (Q9H2G2 whole entry): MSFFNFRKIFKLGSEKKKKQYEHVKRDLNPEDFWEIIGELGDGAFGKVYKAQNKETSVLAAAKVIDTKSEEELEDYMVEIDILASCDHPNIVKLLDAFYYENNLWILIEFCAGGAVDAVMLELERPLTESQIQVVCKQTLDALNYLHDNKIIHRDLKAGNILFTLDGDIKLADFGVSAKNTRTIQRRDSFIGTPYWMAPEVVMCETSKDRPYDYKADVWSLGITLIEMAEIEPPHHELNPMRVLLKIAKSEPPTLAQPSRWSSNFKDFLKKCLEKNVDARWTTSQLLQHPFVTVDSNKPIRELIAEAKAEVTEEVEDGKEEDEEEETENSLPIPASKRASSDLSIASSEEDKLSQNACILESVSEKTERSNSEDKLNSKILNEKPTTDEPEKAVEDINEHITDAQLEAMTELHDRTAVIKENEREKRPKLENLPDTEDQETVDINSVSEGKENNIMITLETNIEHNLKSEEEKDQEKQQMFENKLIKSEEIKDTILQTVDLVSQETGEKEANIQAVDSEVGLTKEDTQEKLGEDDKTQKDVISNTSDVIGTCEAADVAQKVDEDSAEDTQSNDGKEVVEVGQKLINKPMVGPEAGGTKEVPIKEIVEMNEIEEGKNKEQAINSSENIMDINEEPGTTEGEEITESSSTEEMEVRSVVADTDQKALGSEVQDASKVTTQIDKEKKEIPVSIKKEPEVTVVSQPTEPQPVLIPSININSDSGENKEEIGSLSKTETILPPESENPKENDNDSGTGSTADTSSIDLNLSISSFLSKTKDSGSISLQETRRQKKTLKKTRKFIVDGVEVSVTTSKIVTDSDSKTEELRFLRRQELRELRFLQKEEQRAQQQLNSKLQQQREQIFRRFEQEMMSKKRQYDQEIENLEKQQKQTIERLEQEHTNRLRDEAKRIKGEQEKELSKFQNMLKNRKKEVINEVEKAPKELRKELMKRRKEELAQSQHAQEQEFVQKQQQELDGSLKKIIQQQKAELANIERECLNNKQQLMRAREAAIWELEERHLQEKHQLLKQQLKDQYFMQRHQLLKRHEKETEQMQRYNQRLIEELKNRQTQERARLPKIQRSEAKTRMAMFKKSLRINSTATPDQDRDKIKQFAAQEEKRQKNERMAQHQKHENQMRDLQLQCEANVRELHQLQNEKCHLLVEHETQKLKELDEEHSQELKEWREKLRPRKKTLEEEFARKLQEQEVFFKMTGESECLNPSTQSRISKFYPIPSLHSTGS
Sequence of c-kit (P10721 26-976): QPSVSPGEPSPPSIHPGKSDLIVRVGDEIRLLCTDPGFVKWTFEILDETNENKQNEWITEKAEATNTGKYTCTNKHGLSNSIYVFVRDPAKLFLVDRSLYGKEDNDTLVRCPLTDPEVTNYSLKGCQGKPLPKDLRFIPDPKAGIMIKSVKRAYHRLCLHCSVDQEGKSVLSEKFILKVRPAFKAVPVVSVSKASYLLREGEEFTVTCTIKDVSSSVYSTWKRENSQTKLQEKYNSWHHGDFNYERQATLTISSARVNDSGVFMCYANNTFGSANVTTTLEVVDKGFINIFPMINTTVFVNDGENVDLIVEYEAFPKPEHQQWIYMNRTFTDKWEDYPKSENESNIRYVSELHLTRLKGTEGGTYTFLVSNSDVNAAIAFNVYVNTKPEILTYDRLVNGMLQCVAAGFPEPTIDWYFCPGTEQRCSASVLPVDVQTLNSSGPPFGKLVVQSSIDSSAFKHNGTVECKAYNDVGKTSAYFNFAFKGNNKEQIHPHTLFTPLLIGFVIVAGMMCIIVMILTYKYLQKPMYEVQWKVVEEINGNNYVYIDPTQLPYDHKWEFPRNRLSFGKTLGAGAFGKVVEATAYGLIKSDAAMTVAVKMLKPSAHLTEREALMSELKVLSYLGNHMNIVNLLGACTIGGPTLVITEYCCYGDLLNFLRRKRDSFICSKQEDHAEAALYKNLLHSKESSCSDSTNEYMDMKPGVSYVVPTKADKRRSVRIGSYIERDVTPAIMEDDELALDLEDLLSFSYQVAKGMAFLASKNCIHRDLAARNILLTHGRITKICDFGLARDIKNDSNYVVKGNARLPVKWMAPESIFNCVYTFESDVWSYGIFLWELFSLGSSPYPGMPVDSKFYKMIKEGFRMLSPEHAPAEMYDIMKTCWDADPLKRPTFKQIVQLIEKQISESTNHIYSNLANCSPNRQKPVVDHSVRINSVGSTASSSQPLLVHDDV
Sequence of VEGFR-3 (P35916 25-1363): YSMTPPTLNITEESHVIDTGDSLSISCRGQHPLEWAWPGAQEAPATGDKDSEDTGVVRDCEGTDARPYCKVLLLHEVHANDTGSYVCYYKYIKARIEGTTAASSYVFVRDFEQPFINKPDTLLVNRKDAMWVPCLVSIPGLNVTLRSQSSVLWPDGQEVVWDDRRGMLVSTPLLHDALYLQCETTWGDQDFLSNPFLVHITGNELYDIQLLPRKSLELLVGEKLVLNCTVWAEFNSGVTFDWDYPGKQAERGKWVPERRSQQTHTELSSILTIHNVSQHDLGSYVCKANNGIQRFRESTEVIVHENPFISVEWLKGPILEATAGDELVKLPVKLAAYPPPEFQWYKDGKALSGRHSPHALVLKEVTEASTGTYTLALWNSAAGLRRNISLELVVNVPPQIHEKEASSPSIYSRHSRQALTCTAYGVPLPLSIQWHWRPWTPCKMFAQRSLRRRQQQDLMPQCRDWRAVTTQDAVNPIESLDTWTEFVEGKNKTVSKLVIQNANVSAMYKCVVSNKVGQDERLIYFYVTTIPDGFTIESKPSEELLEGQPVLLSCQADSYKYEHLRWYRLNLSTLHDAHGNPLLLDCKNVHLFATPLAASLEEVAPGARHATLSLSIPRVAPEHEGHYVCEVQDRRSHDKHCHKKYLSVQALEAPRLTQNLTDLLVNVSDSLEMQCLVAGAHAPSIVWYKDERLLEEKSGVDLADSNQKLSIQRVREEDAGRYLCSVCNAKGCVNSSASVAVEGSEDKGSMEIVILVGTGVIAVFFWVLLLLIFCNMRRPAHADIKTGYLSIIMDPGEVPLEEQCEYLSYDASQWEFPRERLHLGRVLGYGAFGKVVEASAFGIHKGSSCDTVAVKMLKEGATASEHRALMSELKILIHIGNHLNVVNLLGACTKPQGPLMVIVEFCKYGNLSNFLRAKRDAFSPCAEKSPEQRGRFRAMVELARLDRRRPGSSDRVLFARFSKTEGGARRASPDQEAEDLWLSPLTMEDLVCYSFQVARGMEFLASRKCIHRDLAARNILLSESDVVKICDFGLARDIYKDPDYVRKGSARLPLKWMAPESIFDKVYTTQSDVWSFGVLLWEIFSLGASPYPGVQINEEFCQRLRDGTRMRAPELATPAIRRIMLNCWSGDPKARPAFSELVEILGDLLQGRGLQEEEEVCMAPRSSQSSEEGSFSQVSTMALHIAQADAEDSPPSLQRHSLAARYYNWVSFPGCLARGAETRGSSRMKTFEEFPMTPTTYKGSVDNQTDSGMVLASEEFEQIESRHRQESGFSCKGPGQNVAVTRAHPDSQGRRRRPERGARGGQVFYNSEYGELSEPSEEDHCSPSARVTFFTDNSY

As to `COc1cc2nccc(Oc3ccc(NC(=O)Nc4cc(C)on4)c(Cl)c3)c2cc1OC` [tivozanib, N-{2-chloro-4-[(6,7-dimethoxy-4-quinolyl)oxy]-phenyl}-N′-(5-methyl-3-isoxazolyl) urea], the “AKT S473 phosphorylation” value in the data set on AKT S473 phosphorylation [1], in the data set on AKT S473 phosphorylation [5] and in the data set on AKT S473 phosphorylation [10] was “inhibited AKT S473 phosphorylation” each time. The proliferation result with EGI-1 [2], with SNU-1079 and in the data set with WITT [9] was “inhibited proliferation” throughout. Further, the tumor organoid formation result with WITT [3], with SNU-1070 and in the data set on EGI-1 [8] was “abrogated tumor formation” throughout. The incidence of hypertension entry in [4] is “high incidence”. Also, at c-kit, the inhibition of c-kit result was “inhibits”. Moreover, the cell degeneration entry in [6] (0.2 μg/mL tivozanib) and in data set [6] (1 μg/mL tivozanib) was “statistically significant increased cell degeneration” each time. Also, the “viable cells compared to control” value in data set [6] (0.2 μg/mL tivozanib) and in [6] (1 μg/mL tivozanib) was “fewer viable cells” in each case. Also, the “Ki67 staining (dark stained nuclei)” value in [6] (day 4, vs control tissue (0 μg/mL tivozanib)) is “reduction in dark stained nuclei”. In addition, the cell death entry in data set [6] (higher dose level (1 μg/mL tivozanib)) is reported as “statistically significant levels of cell death”. Further, the angiogenesis result in data set [7] is “inhibited”. Besides, the tumor growth entry in data set [7] is “inhibited”. Moreover, the “phosphorylation of VEGFR-3” value on VEGFR-3 is listed as “inhibits phosphorylation”. The “inhibition of PDGFR β” value at PDGFR β is given as “inhibits”. Also, the “tumor growth in vivo” value in the data set with EGI-1 cell line (EGI-1 subcutaneous xenograft) was “inhibited tumor growth”. The “final tumor volume vs control vehicle” value in the data set on EGI-1 cell line (tivozanib 20 mg/kg/day for 28 days, p value of <0.001) is reported as “statistically significantly smaller in volume”. For the same molecule, the “change in tumor volume over the course of treatment” value with EGI-1 cell line (waterfall plot FIG. 3I, compared to control) is reported as “substantial change in tumor volume”. In addition, the “inhibition of SLK” value on SLK is recorded as “potent inhibitor of SLK”.
Consider bevacizumab: an anti-VEGF antibody, for which the “average tumor volume vs control group” value in the data set with EGI-1 cell line (bevacizumab, standard murine dose, 28 days of treatment) is “statistically significantly smaller”.
Regarding `COc1cc2nccc(Oc3ccc(NC(=O)Nc4cc(C)on4)c(Cl)c3)c2cc1OC` [Tivozanib hydrochloride, 1-{2-chloro-4-[(6,7-dimethoxyquinolin-4-yl)oxy]phenyl}-3-(5-methylisoxazol-3-yl) urea hydrochloride hydrate], the solubility in water result in data set [11] is given as “practically insoluble in water”.
